Active and inactive are the calls of the source. The rule behind the calls is not given here.
What was measured:
CCRF S-180 [1] = assay: In vivo antitumor activity against mouse S180 cells implanted in mouse assessed as cell growth at 60 ug/mouse for 10 days relative to control; assay type: functional
CCRF S-180 [2] = assay: In vivo antitumor activity against mouse S180 cells implanted in mouse assessed as cell growth at 20 ug/mouse for 10 days relative to control; assay type: functional
KB = assay: Cytotoxicity against human KB cells; assay type: functional, cell-based
CCRF S-180 [3] = assay: Cytotoxicity against mouse S180 cells; assay type: functional, cell-based
CCRF S-180 [4] = assay: In vivo antitumor activity against mouse S180 cells implanted in mouse after 10 days; assay type: functional, organism-based
L1210 = assay: Cytotoxicity against mouse L1210 cells; assay type: functional, cell-based
CCRF S-180 [5] = assay: Antitumor activity against mouse S180 cells implanted in mouse in presence of cyclophosphamide administered 24 hrs prior to implantation; assay type: functional, cell-based
CCRF S-180 [6] = assay: In vivo antitumor activity against mouse S180 cells implanted in mouse assessed as cell growth at 2.5 ug/mouse for 10 days relative to control; assay type: functional
CCRF S-180 [7] = assay: In vivo antitumor activity against mouse S180 cells implanted in mouse assessed as cell growth at 10 ug/mouse for 10 days relative to control; assay type: functional
CCRF S-180 [8] = assay: In vivo antitumor activity against mouse S180 cells implanted in mouse assessed as cell growth at 5 ug/mouse for 10 days relative to control; assay type: functional
CCRF S-180 [9] = assay: In vivo antitumor activity against mouse S180 cells implanted in mouse assessed as cell growth at 40 ug/mouse for 10 days relative to control; assay type: functional
CCRF S-180 [10] = assay: In vivo antitumor activity against mouse S180 cells implanted in mouse assessed as cell growth at 1.25 ug/mouse for 10 days relative to control; assay type: functional
CCRF S-180 [11] = assay: In vivo antitumor activity against mouse S180 cells implanted in mouse assessed as cell growth at 0.625 ug/mouse for 10 days relative to control; assay type: functional

COc1cc(C2c3cc(O[C@@H]4O[C@H](COC(=O)CC5C(=O)Nc6ccccc65)[C@@H](O)[C@H](O)[C@H]4O)c(O)cc3C3C(=O)O[C@H]4[C@H](O)[C@@H](COC(=O)C32)O[C@@]4(CO)O[C@H]2O[C@H](CO)[C@@H](O)[C@H](O)[C@H]2O)ccc1O (stereo not given in full) [SECALOSDIE A/B]
T/C (CCRF S-180 [1]): 0%
T/C (CCRF S-180 [2]): 17%
Activity (KB): inactive
Activity (CCRF S-180 [3]): inactive
IC50 (CCRF S-180 [4]): 5 µg
Activity (L1210): inactive
Activity (CCRF S-180 [5]): inactive
T/C (CCRF S-180 [6]): 70%
T/C (CCRF S-180 [7]): 24%
T/C (CCRF S-180 [8]): 45%
T/C (CCRF S-180 [9]): 2%

O=C1CC(C(=O)O)c2ccccc2N1 (racemic)
T/C (CCRF S-180 [2]): 0%
IC50 (CCRF S-180 [4]): <= 1 ug
T/C (CCRF S-180 [6]): 0%
T/C (CCRF S-180 [7]): 0%
T/C (CCRF S-180 [8]): 0%
T/C (CCRF S-180 [10]): 30%
T/C (CCRF S-180 [11]): 62%

O=C(O)CC1C(=O)Nc2ccccc21 (stereo not given)
T/C (CCRF S-180 [2]): 0%
IC50 (CCRF S-180 [4]): <= 1 ug
T/C (CCRF S-180 [6]): 0%
T/C (CCRF S-180 [7]): 0%
T/C (CCRF S-180 [8]): 0%
T/C (CCRF S-180 [10]): 16%
T/C (CCRF S-180 [11]): 36%

Source: ChEMBL document CHEMBL1145721, “The secalosides, novel tumor cell growth inhibitory glycosides from a pollen extract” (J Nat Prod, 1997)
